Results reported in patent US6613772B1, “Substituted 2-aryl-4-amino-chinazolines, method for the production and use thereof as medicaments” (Aventis Pharma Deutschland GmbH, priority 1997, dated 2003).

Legend:
[1] = biological target: T1, soluble guanylate cyclase (sGC) (Bos taurus, UniProt P16068+P19687); test: Activation of the soluble guanylate cyclase (cGMP enzyme immunoassay); assay type: biochemical; conditions: test substance 50 μM; sGC isolated from bovine lung; [cGMP] test substance/[cGMP] control (basal activity, solvent); 37° C., 15 to 20 minutes
T1 construct: The sGC employed had been isolated from bovine lung; from tissue; host or cells: bovine lung
T1 sequence (P19687 1-691): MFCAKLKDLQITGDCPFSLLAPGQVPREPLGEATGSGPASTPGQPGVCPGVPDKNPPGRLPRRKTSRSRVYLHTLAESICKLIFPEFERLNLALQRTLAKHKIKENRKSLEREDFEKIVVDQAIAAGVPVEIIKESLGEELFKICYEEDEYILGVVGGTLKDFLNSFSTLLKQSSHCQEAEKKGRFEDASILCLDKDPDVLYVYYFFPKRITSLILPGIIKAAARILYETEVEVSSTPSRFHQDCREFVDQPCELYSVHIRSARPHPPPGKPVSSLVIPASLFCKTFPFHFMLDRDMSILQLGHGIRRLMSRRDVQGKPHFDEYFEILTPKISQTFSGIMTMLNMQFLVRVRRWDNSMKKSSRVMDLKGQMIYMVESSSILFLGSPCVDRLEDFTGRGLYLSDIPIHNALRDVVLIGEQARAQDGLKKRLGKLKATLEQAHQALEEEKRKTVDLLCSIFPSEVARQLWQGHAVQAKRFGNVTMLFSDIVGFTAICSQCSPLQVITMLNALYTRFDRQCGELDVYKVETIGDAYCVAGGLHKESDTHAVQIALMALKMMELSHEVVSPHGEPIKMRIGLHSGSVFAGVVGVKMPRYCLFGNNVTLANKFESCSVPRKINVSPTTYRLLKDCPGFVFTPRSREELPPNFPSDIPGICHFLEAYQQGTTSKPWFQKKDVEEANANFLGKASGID
T1 sequence (P16068 1-619): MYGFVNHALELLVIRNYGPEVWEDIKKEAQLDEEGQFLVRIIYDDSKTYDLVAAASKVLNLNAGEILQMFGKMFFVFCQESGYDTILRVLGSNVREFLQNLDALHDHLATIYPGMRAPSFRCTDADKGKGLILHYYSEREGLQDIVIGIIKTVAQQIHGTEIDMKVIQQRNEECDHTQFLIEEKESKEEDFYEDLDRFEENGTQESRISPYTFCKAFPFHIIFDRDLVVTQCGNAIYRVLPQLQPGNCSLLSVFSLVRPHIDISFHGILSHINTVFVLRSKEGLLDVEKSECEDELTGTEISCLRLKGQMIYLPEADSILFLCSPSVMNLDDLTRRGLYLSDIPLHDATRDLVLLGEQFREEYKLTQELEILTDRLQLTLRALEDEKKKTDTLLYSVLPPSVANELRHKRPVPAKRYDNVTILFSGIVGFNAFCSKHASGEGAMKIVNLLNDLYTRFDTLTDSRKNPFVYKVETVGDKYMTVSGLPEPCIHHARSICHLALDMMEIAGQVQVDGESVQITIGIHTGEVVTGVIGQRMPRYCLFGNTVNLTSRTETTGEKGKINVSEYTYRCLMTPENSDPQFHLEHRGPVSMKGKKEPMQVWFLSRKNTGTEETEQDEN
Method: Activation of the Soluble Guanylate Cyclase
The activation of the soluble guanylate cyclase (sGC), which catalyzes the conversion of guanosine triphosphate (GTP) into cyclic guanosine monophosphate (cGMP) and pyrophosphate, by the compounds according to the invention was quantified with the aid of an enzyme immunoassay (EIA) from Amersham. For this, the test substances were first incubated with sGC in microtiter plates and then the amount of resulting cGMP was determined. The sGC employed had been isolated from bovine lung (see Methods in Enzymology, Volume 195, p. 377). The test solutions (100 μl per well) contained 50 mM triethanolamine (TEA) buffer (pH 7.5), 3 mM MgCl2, 3 mM reduced glutathione (GSH), 0.1 mM GTP, 1 mM 3-isobutyl-1-methylxanthine (IBMX), suitably diluted enzyme solution and the test substance or, in the case of the control experiments, solvent. The test substances were dissolved in dimethyl sulfoxide (DMSO) and the solution was diluted with DMSO/water such that the final concentration of test substance in the test solution was 50 μM. The DMSO concentration in the test solution was 5% (v/v). The reaction was started by addition of the sGC. The reaction mix was incubated at 37° C. for 15 to 20 minutes and then stopped by ice-cooling and addition of the stop reagent (50 mM EDTA, pH 8.0). An aliquot of 50 μl was taken and employed for the determination of the cGMP content using the acetylation protocol of the Amersham cGMP EIA kit. The absorption of the samples was measured at 450 nm (reference wavelength 620 nm) in a microtiter plate reader. The cGMP concentration was determined by means of a calibration curve which was obtained under the same experimental conditions. The activation of the sGC by a test substance is indicated as n-fold stimulation of the basal enzyme activity which was found in the control experiments (with solvent instead of test substance calculated according to the formula
n-fold stimulation=[cGMP]test substance/[cGMP]control).

| SMILES | n-fold Stimulation [1] [n-fold] | melting point [°C] |
| --- | --- | --- |
| COc1cc2c(N3CCN(Cc4ccccc4)CC3)nc(-c3ccc(Cl)cc3)nc2c(OC)c1OC [Example 09, 2-(4-Chlorophenyl)-4-(4-benzylpiperazino)-6,7,8-trimethoxyquinazoline] | 4 |  |
| COc1cc2c(N3CCN(CCO)CC3)nc(-c3ccc(Cl)cc3)nc2c(OC)c1OC [Example 13, 2-(4-Chlorophenyl)-4-(4-(2-hydroxyethyl)piperazino)-6,7,8-trimethoxyquinazoline] | 7 | 175 |
| COc1cc2nc(-c3ccc(Cl)cc3)nc(N3CCN(CCO)CC3)c2cc1OC [Example 23, 2-(4-Chlorophenyl)-4-(4-(2-hydroxyethyl)piperazino)-6,7-dimethoxyquinazoline] | 4 | 163 |
| COc1cc2nc(-c3ccc(Cl)cc3)nc(NCCCO)c2cc1OC [Example 32, 2-(4-Chlorophenyl)-4-(3-hydroxypropylamino)-6,7-dimethoxyquinazoline] | 5 | 187 |
| COc1cc2nc(-c3ccc(Cl)cc3)nc(NCCOCCO)c2cc1OC [Example 33, 2-(4-Chlorophenyl)-4-(2-(2-hydroxyethoxy)ethylamino)-6,7-dimethoxyquinazoline] | 3 | 188 |
| COc1cc2nc(-c3ccc(Cl)cc3)nc(N(C)C)c2cc1OC [Example 35, 2-(4-Chlorophenyl)-4-dimethylamino-6,7-dimethoxyquinazoline] | 5 | 148 |
| COCCNc1nc(-c2ccc(Cl)cc2)nc2cc(OC)c(OC)cc12 [Example 36, 2-(4-Chlorophenyl)-4-(2-methoxyethylamino)-6,7-dimethoxyquinazoline] | 5 | 178 |
| COc1cc2nc(-c3ccc(C)cc3)nc(NCCO)c2cc1OC [Example 37, 2-(4-Methylphenyl)-4-(2-hydroxyethylamino)-6,7-dimethoxyquinazoline] | 4 | 217 |
| COCCCNc1nc(-c2ccc(Cl)cc2)nc2cc(OC)c(OC)cc12 [Example 86, 2-(4-Chlorophenyl)-4-(3-methoxypropylamino)-6,7-dimethoxyquinazoline] |  | 240 |
| COc1cc2nc(-c3ccc(Cl)cc3)nc(N3CCC(C(N)=O)CC3)c2cc1OC [Example 88, 2-(4-Chlorophenyl)-4-(4-aminocarbonylpiperidino)-6,7-dimethoxyquinazoline] |  | 225 |
| COc1cc2nc(-c3ccc(Cl)cc3)nc(N3CCCCCC3)c2cc1OC [Example 89, 2-(4-Chlorophenyl)-4-hexamethyleneimino-6,7-dimethoxyquinazoline] |  | 189 |
| COc1cc2nc(-c3ccc(Cl)cc3)nc(N3C[C@@H](C)O[C@@H](C)C3)c2cc1OC [Example 90, 2-(4-Chlorophenyl)-4-(cis-2,6-dimethylmorpholino)-6,7-dimethoxyquinazoline] |  | 223 |
| COc1cc2c(N3CCC(O)CC3)nc(-c3ccc(Cl)cc3)nc2c(OC)c1OC [Example 95, 2-(4-Chlorophenyl)-4-(4-hydroxypiperidino)-6,7,8-tdmethoxyquinazoline] | 7 |  |

Now from value to compound:

| n-fold Stimulation [1] [n-fold] | melting point [°C] | SMILES |
| --- | --- | --- |
| 6 | 189 | COc1cc2c(NCCN(C(C)C)C(C)C)nc(-c3ccc(Cl)cc3)nc2c(OC)c1OC.Cl [Example 11, 2-(4-Chlorophenyl)-4-(2-diisopropylaminoethylamino)-6,7,8-trimethoxyquinazoline Hydrochloride] |
| 6 | 177 | COc1cc2c(N3CCN(CC(=O)N4CCOCC4)CC3)nc(-c3ccc(Cl)cc3)nc2c(OC)c1OC [Example 12, 2-(4-Chlorophenyl)-4-(4-(morpholinocarbonylmethyl)piperazino)-6,7,8-trimethoxyquinazoline] |
| 3 | 190 | COc1cc2c(NCCCN3CCOCC3)nc(-c3ccc(Cl)cc3)nc2c(OC)c1OC.Cl [Example 14, 2-(4-Chlorophenyl)-4-(3-morpholinopropylamino)-6,7,8-trimethoxyquinazoline Hydrochloride] |
| 4 | 249 | COc1cc2nc(-c3ccc(Cl)cc3)nc(N3CCN(C)CC3)c2cc1OC.Cl [Example 17, 2-(4-Chlorophenyl)-4-(4-methylpiperazino)-6,7-dimethoxyquinazoline Hydrochloride] |
| 5 | 236 | COc1cc2nc(-c3ccc(Cl)cc3)nc(NCCO)c2cc1OC [Example 20, 2-(4-Chlorophenyl)-4-(2-hydroxyethylamino)-6,7-dimethoxyquinazoline] |
| 3 | 187 | COc1cc2nc(-c3ccc(Cl)cc3)nc(N3CCN(CC(=O)NC(C)C)CC3)c2cc1OC [Example 24, 2-(4-Chlorophenyl)-4-(4-(isopropylaminocarbonylmethyl)piperazino)-6,7-dimethoxyquinazoline] |
| 3 | 291 | COc1cc2nc(-c3ccc(Cl)cc3)nc(NCC(N)=O)c2cc1OC [Example 25, 2-(4-Chlorophenyl)-4-((aminocarbonylmethyl)amino)-6,7-dimethoxyquinazoline] |
| 5 | 232 | COc1cc2nc(-c3ccc(Cl)cc3)nc(NCc3cccnc3)c2cc1OC [Example 28, 2-(4-Chlorophenyl)-4-((3-pyridylmethyl)amino)-6,7-dimethoxyquinazoline] |
| 7 | 239 | COc1cc2nc(-c3ccc(C)cc3)nc(NCc3cccnc3)c2cc1OC [Example 38, 2-(4-Methylphenyl)-4-((3-pyridylmethyl)amino)-6,7-dimethoxyquinazoline] |
| 3 | 166 | COc1cc2nc(-c3ccc(C)cc3)nc(N3CCN(C)CC3)c2cc1OC [Example 39, 2-(4-Methylphenyl)-4-(4-methylpiperazino)-6,7-dimethoxyquinazoline] |
| 3 | 210 | COc1cc2nc(-c3ccc(C(F)(F)F)cc3)nc(NCCO)c2cc1OC [Example 42, 2-(4-Trifluoromethylphenyl)-4-(2-hydroxyethylamino)-6,7-dimethoxyquinazoline] |
|  | 165 | COc1cc2nc(-c3ccc(C)cc3)nc(N(C)Cc3cccnc3)c2cc1OC [Example 97, 2-(4-Methylphenyl)-4-(N-methyl-N-(3-pyridylmethyl)amino)-6,7-dimethoxyquinazoline] |
